Source: US20040116420A1 (priority 2001, published 2004)

How the values were obtained:
HSV-1 protease = target: T1, HSV-1 protease (Human herpesvirus 1, UniProt P10210); experiment: Enzymatic assay for HSV-1 protease (assembly) inhibitor, fluorescence polarization; type: biochemical; conditions: read-out: HSV-1 Enzyme inhibition IC50
T1 construct: 6xHis (N); made in house; host or cells: baculovirus expression system
Procedure, shortened: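 Fluorescence polarization read-out: after avidin stop, cleavage of a biotinylated DTAF-labelled release-site peptide by recombinant N-His6 HSV-1 protease was compared with no-inhibitor wells. Enzyme and compound were preincubated 30 min, then substrate reacted 60 min, all at room temperature, pH 7.4 citrate buffer with TCEP.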

HSV-1 = experiment: Antiviral activity, HSV-1 in Vero cells, plaque method; type: cell-based; conditions: Human alphaherpesvirus 1, 20 hours, 90% inhibition of plaque formation
Procedure, shortened: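 This is a virus-yield read-out. The culture medium was frozen at −80° C and thawed, and the plaques it formed were counted. It came from Vero monolayers infected with 50,000 pfu HSV-1 and then exposed to the compound for 20 h at 37° C. EC90 is the concentration inhibiting 90% of plaque formation relative to the untreated infected control.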

Vero cells = experiment: Cytotoxicity, Vero cells, Alamar Blue; type: cell-based; conditions: 25 μM, 20 hours
Procedure, shortened: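 Living-cell ratio versus untreated control was read by Alamar Blue absorbance after about 6 h of dye incubation. Before that, Vero cells had received 25 μM test compound in 2% FBS-DMEM for 20 hours at 37 °C under 5% CO2.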

T1 sequence (P10210 1-247): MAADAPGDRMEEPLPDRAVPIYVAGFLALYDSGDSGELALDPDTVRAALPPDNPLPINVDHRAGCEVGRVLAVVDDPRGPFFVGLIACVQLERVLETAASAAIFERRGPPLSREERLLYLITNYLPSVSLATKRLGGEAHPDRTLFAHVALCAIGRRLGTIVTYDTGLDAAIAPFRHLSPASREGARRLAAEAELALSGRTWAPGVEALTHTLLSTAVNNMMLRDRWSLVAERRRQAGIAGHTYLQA

Compound | IC50 (HSV-1 protease) | EC90 (HSV-1) | Cell viability (% of control) (Vero cells)
Cc1c(NC(=O)OC(C)(C)C)ccc2nc(N3Cc4ccccc4C[C@H]3C(=O)N(C)Cc3ccccn3)oc(=O)c12 [Compound No.98, {5-Methyl-2-[3S-(methyl-pyridin-2-yl-methylcarbamoyl)-3,4-dihydro-1H-isoquinolin-2-yl]-4-oxo-4H-benzo[d][1,3]oxazin-6-yl}-carbamic acid tert-butyl ester] | 6.1 µM | 5.8 µM | 46.2%
Cc1c(NC(=O)OC(C)(C)C)ccc2nc(N3Cc4ccccc4C[C@H]3C(=O)N(C)CCc3cccnc3)oc(=O)c12 [Compound No.100, (5-Methyl-2-{3S-[methyl-(2-pyridin-3-yl-ethyl)-carbamoyl]-3,4-dihydro-1H-isoquinolin-2-yl}-4-oxo-4H-benzo[d][1,3]oxazin-6-yl)-carbamic acid tert-butyl ester] | 9.7 µM | 11.8 µM | 44.1%
Cc1c(NC(=O)OC(C)(C)C)ccc2nc(N3Cc4ccccc4C[C@H]3C(=O)N(C)CCc3ccncc3)oc(=O)c12 [Compound No.101, (5-Methyl-2-{3S-[methyl-(2-pyridin-4-yl-ethyl)-carbamoyl]-3,4-dihydro-1H-isoquinolin-2-yl}-4-oxo-4H-benzo[d][1,3]oxazin-6-yl)-carbamic acid tert-butyl ester] | > 20 µM | 8.4 µM | 45.5%
Cc1c(NC(=O)OC(C)(C)C)ccc2nc(N3CCCC[C@H]3C(=O)NCc3ccccn3)oc(=O)c12 [Compound No.102, (5-Methyl-4-oxo-2-{2S-[(pyridin-2-ylmethyl)-carbamoyl]-piperidin-1-yl}-4H-benzo[d][1,3]oxazin-6-yl)-carbamic acid tert-butyl ester] | 1.6 µM | > 12.5 µM | 64.4%
Cc1c(NC(=O)OC(C)(C)C)ccc2nc(N3CCCC[C@H]3C(=O)NCc3cccnc3)oc(=O)c12 [Compound No.103, (5-Methyl-4-oxo-2-{2S-[(pyridin-3-ylmethyl)-carbamoyl]-piperidin-1-yl}-4H-benzo[d][1,3]oxazin-6-yl)-carbamic acid tert-butyl ester] | 2.6 µM | > 12.5 µM | 68.9%
Cc1c(NC(=O)OC(C)(C)C)ccc2nc(N3CCCC[C@H]3C(=O)NCc3ccncc3)oc(=O)c12 [Compound No.104, (5-Methyl-4-oxo-2-{2S-[(pyridin-4-ylmethyl)-carbamoyl]-piperidin-1-yl}-4H-benzo[d][1,3]oxazin-6-yl)-carbamic acid tert-butyl ester] | 4.3 µM | > 12.5 µM | 63.0%
Cc1c(NC(=O)OC(C)(C)C)ccc2nc(N3CCCC[C@H]3C(=O)NCCc3ccccn3)oc(=O)c12 [Compound No.105, {5-Methyl-4-oxo-2-[2S-(2-pyridin-2-ylethylcarbamoyl)-piperidin-1-yl]-4H-benzo[d][1,3]oxazin-6-yl}-carbamic acid tert-butyl ester] | 2.9 µM | > 12.5 µM | 55.6%
Cc1c(NC(=O)OC(C)(C)C)ccc2nc(N3CCCC[C@H]3C(=O)N(C)CCc3ccccn3)oc(=O)c12 [Compound No.106, (5-Methyl-2-{2S-[methyl-(2-pyridin-2-yl-ethyl)-carbamoyl]-piperidin-1-yl}-4-oxo-4H-benzo[d][1,3]oxazin-6-yl)-carbamic acid tert-butyl ester] | 7.6 µM | > 12.5 µM | 53.3%
Cc1c(NC(=O)OC(C)(C)C)ccc2nc(N3CCCC[C@H]3C(=O)N(C)CCc3cccnc3)oc(=O)c12 [Compound No.107, (5-Methyl-2-{2S-[methyl-(2-pyridin-3-yl-ethyl)-carbamoyl]-piperidin-1-yl}-4-oxo-4H-benzo[d][1,3]oxazin-6-yl)-carbamic acid tert-butyl ester] | 7.4 µM | > 12.5 µM | 45.4%
Cc1c(NC(=O)OC(C)(C)C)ccc2nc(N3CCCC[C@H]3C(=O)N(C)CCc3ccncc3)oc(=O)c12 [Compound No.108, (5-Methyl-2-{2S-[methyl-(2-pyridin-4-yl-ethyl)-carbamoyl]-piperidin-1-yl}-4-oxo-4H-benzo[d][1,3]oxazin-6-yl)-carbamic acid tert-butyl ester] | 4.4 µM | > 12.5 µM | 97.9%
Cc1c(NC(=O)C(C)(C)C)ccc2nc(NC(C)(C)C(=O)N(C)CCc3ccccn3)oc(=O)c12 [Compound No.136, 2,2-Dimethyl-N-(5-methyl-2-{1-methyl-1-[methyl-(2-pyridin-2-yl-ethyl)-carbamoyl]-ethylamino}-4-oxo-4H-benzo[d][1,3]oxazin-6-yl)-propionamide] | 4.5 µM | > 12.5 µM | 81.8%
COCC(=O)Nc1ccc2nc(NC(C)(C)C(=O)N(C)CCc3ccccn3)oc(=O)c2c1C [Compound No.137, 2-[6-(2-Methoxy-acetylamino)-5-methyl-4-oxo-4H-benzo[d][1,3]oxazin-2-ylamino]-2,N-dimethyl-N-(2-pyridin-2-yl-ethyl)-propionamide] | 4.2 µM | > 12.5 µM | 98.2%

Now from value to compound, other results behind:

IC50 (HSV-1 protease) | EC90 (HSV-1) | Compound | Cell viability (% of control) (Vero cells)
5.2 µM | 10.1 µM | Cc1c(NC(=O)OC(C)(C)C)ccc2nc(N3Cc4ccccc4C[C@H]3C(=O)N(C)CCc3ccccn3)oc(=O)c12 [Compound No.99, (5-Methyl-2-{3S-[methyl-(2-pyridin-2-yl-ethyl)-carbamoyl]-3,4-dihydro-1H-isoquinolin-2-yl}-4-oxo-4H-benzo[d][1,3]oxazin-6-yl)-carbamic acid tert-butyl ester] | 53.2%
1.4 µM | 8.8 µM | Cc1c(NC(=O)OC(C)(C)C)ccc2nc(N3C[C@H](OCc4ccccc4)C[C@H]3C(=O)NCc3ccccn3)oc(=O)c12 [Compound No.109, (2-{4R-Benzyloxy-2S-[(pyridin-2-ylmethyl)-carbamoyl]-pyrrolidin-1-yl}-5-methyl-4-oxo-4H-benzo[d][1,3]oxazin-6-yl)-carbamic acid tert-butyl ester] | 58.5%
6.3 µM | 7.4 µM | Cc1c(NC(=O)OC(C)(C)C)ccc2nc(N3C[C@H](OCc4ccccc4)C[C@H]3C(=O)NCc3cccnc3)oc(=O)c12 [Compound No.110, (2-{4R-Benzyloxy-2S-[(pyridin-3-ylmethyl)-carbamoyl]-pyrrolidin-1-yl}-5-methyl-4-oxo-4H-benzo[d][1,3]oxazin-6-yl)-carbamic acid tert-butyl ester] | 71.9%
3.3 µM | 7.8 µM | Cc1c(NC(=O)OC(C)(C)C)ccc2nc(N3C[C@H](OCc4ccccc4)C[C@H]3C(=O)NCc3ccncc3)oc(=O)c12 [Compound No.111, (2-{4R-Benzyloxy-2S-[(pyridin-4-ylmethyl)-carbamoyl]-pyrrolidin-1-yl}-5-methyl-4-oxo-4H-benzo[d][1,3]oxazin-6-yl)-carbamic acid tert-butyl ester] | 80.4%
2.7 µM | 10.7 µM | Cc1c(NC(=O)OC(C)(C)C)ccc2nc(N3C[C@H](OCc4ccccc4)C[C@H]3C(=O)NCCc3ccccn3)oc(=O)c12 [Compound No.112, {2-[4R-Benzyloxy-2S-(2-pyridin-2-ylethylcarbamoyl)-pyrrolidin-1-yl]-5-methyl-4-oxo-4H-benzo[d][1,3]oxazin-6-yl}-carbamic acid tert-butyl ester] | 84.2%
10.1 µM | 8.8 µM | Cc1c(NC(=O)OC(C)(C)C)ccc2nc(N3C[C@H](OCc4ccccc4)C[C@H]3C(=O)N(C)Cc3ccccn3)oc(=O)c12 [Compound No.113, {2-[4R-Benzyloxy-2S-(methyl-pyridin-2-ylmethyl-carbamoyl)-pyrrolidin-1-yl]-5-methyl-4-oxo-4H-benzo[d][1,3]oxazin-6-yl}-carbamic acid tert-butyl ester] | 71.7%
> 10 µM | 5.9 µM | Cc1c(NC(=O)OC(C)(C)C)ccc2nc(N3C[C@H](OCc4ccccc4)C[C@H]3C(=O)N(C)CCc3ccccn3)oc(=O)c12 [Compound No.114, (2-{4R-Benzyloxy-2S-[methyl-(2-pyridin-2-yl-ethyl)-carbamoyl]-pyrrolidin-1-yl}-5-methyl-4-oxo-4H-benzo[d][1,3]oxazin-6-yl)-carbamic acid tert-butyl ester] | 76.5%
> 20 µM | 6.1 µM | Cc1c(NC(=O)OC(C)(C)C)ccc2nc(N3C[C@H](OCc4ccccc4)C[C@H]3C(=O)N(C)CCc3cccnc3)oc(=O)c12 [Compound No.115, (2-{4R-Benzyloxy-2S-[methyl-(2-pyridin-3-yl-ethyl)-carbamoyl]-pyrrolidin-1-yl}-5-methyl-4-oxo-4H-benzo[d][1,3]oxazin-6-yl)-carbamic acid tert-butyl ester] | 71.4%
> 10 µM | 6.5 µM | Cc1c(NC(=O)OC(C)(C)C)ccc2nc(N3C[C@H](OCc4ccccc4)C[C@H]3C(=O)N(C)CCc3ccncc3)oc(=O)c12 [Compound No.116, (2-{4R-Benzyloxy-2S-[methyl-(2-pyridin-4-yl-ethyl)-carbamoyl]-pyrrolidin-1-yl}-5-methyl-4-oxo-4H-benzo[d][1,3]oxazin-6-yl)-carbamic acid tert-butyl ester] | 68.2%
